Results on one molecule are retold here after BindingDB's records for patent US11912682 (Monte Rosa Therapeutics, 2024).

Broadly, the IC50 is the concentration at which inhibition is half-maximal.

The assay deals with Protein cereblon (Homo sapiens, UniProt Q96SW2). The assay can be described thus: Compound Activity by Fluorescent Polarization Assay. The procedure: Compound activity was monitored in a fluorescence polarization (FP) homogeneous assay using 1-[5-({2-[2-(2-{[2-(2,6-dioxopiperidin-3-yl)-1,3-dioxo-2,3-dihydro-1H-isoindol-4-yl]oxy}acetamido)ethoxy]ethyl}carbamoyl)pentyl]-3,3-dimethyl-2-[(1E,3E)-5-[(2E)-1,3,3-trimethyl-5-sulfo-2,3-dihydro-1H-indol-2-ylidene]penta-1,3-dien-1-yl]-3H-indol-1-ium-5-sulfonate as a fluorescent probe. Unless otherwise stated, all reagents were purchased from Sigma Aldrich. Enzymatic reactions were conducted in Perkin-Elmer Black 384 well ProxiPlate Plus (catalogue no. 6008269) in 10 μL total volume. Full length wild-type cereblon CRBN (80.0 nM, 10 μL) was incubated in assay buffer containing 20 mM HEPES (pH 8.0), […], 0.5 mM TCEP and 0.05% Tween 20 in the presence or absence of compound (300 nL). Inhibitors were stored as 10 mM DMSO stocks in an inert environment (low humidity, dark, low oxygen, room temperature) using the Storage Pod System. Compounds and DMSO were dispensed using the Echo ESXX (Labcyte Inc. USA) to give concentrations from 300 to 0.937 or 3000 to 9.3 nM in a 12 data point curve. […] FP was measured after a period of 12 hours using a Pherastar plate reader (BMG Labtech, Germany) exciting at 590 nm and measuring the amount of parallel and perpendicular light at 675 nm. […]
Protein cereblon, sequence (Q96SW2 whole entry): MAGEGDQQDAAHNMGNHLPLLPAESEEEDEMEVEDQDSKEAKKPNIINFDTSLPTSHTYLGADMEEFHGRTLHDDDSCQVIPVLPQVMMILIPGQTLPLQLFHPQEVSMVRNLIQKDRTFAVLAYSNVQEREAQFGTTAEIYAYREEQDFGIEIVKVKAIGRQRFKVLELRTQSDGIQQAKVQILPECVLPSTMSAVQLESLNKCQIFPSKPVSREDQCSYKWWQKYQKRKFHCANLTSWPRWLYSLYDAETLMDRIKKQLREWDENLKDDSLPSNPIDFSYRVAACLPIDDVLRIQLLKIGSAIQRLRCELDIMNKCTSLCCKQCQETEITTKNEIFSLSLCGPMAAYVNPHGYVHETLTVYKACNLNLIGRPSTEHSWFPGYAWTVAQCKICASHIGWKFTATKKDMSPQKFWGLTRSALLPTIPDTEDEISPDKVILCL

The molecule `O=C1CCC(N2Cc3ccc(COC(=O)Nc4cc(Cl)cc(OC(F)(F)F)c4)cc3C2=O)C(=O)N1` (stereo unspecified) [US11912682, Compound 11] had an IC50 of over 1700 nM.
